Measurements published in US20200157048A1, “(2E,4E)-5-PHENYL-PENTA-2,4-DIEN-1-ONE DERIVATIVE” (BIOWAY., INC, priority 2018, published 2020).

Key:
[1] = system: Huh-7 cells; assay: Oil-Red O staining and lipid accumulation in steatosis-induced Huh-7 cells; format: cell-based; conditions: Huh-7 cells pretreated with OA/PA (R-28: OA); 10, 20 or 40 μM (R-28: 2, 10, 50 μM); 24 hours
Protocol: Huh-7 cells were maintained in a RPMI1640 medium containing 10% FBS, 100 U/mL of penicillin, and 100 μg/mL of streptomycin. All reagents were purchased from Life Technologies Corporation (Grand Island, N.Y., USA).
The Huh-7 cells were incubated under an atmosphere containing 5% CO2 at 37° C.
In Experimental Example 4, the Huh-7 cells were plated in 24 wells at 3×10^5 cells/mL and incubated under an atmosphere containing 5% CO2 at 37° C.
One day later, the cell density approached about 80 to 90%. The medium was changed to an FBS-free RPMI1640 medium, and incubated under an atmosphere containing 5% CO2 at 37° C. for 24 hours.
Huh-7 cells of each well, excluding control cells, were pretreated with an OA/PA mixture (however, R-28 is OA) for 1 hour to induce steatosis. Control cells were pretreated with 1% FA-free BSA.
Each well was treated with 10 μM, 20 μM, or 40 μM of a test compound (however, for R-28, 2 μM, 10 μM and 50 μM), and cultured for 24 hours. The control cells and the OA/PA-treated cells were treated with DMSO. […]
Images were obtained from a Cytation 5 Cell Imaging Multi-Mode Reader (BioTek, Winooski, Vt., USA). […]
200 μL of isopropyl alcohol was added to each well, and the cells were collected in a 96-well plate. Absorbance was measured at 540 nm, and data was analyzed.

[2] = target: T1, SIRT1 (Homo sapiens, UniProt Q96EB6); assay: SIRT1 direct fluorescent assay; format: biochemical; conditions: 20 μM
T1 construct: purchased Cayman (Ann Arbor, Mich., USA)
T1 sequence (Q96EB6 1-747): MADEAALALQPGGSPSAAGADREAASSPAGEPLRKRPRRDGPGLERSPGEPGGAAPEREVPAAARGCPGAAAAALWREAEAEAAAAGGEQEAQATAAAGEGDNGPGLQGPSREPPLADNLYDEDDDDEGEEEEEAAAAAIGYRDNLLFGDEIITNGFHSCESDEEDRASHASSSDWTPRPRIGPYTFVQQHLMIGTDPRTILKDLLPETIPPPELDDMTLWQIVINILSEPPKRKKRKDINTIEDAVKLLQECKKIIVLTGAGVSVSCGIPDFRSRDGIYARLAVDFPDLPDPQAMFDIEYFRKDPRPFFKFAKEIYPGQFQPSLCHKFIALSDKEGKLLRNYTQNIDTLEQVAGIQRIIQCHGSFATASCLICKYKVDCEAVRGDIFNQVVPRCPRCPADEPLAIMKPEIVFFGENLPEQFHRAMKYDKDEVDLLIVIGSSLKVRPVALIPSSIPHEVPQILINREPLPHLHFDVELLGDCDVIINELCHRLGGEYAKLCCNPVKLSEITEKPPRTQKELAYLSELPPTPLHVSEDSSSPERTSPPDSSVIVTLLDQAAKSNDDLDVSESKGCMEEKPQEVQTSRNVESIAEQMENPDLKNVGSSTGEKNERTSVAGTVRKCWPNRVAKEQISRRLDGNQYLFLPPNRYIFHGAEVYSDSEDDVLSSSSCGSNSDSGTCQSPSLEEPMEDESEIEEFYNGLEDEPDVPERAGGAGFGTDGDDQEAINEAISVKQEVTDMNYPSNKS
Protocol: All materials were provided from a Sirt1 direct fluorescent screening assay kit (Cayman, Ann Arbor, Mich., USA).
SIRT1, p53 conjugated aminomethyl coumarin (AMC) protein, and 3 mM NAD^+ were added to a diluted analysis buffer (50 mM Tris-HCl, pH 8.0, 137 mM NaCl, 2.7 mM KCl, and 1 mM MgCl2).
25 μL of the analysis buffer, 5 μL of diluted SIRT1, and 5 μL of a solvent were added to each of three 100% initial activity wells of a 96-well plate.
30 μL of the analysis buffer and 5 μL of a solvent were added to each of three background wells of the 96-well plate.
25 μL of the analysis buffer, 5 μL of diluted SIRT1, and 5 μL of a diluted test compound were added to each of three sample wells of the 96-well plate. The final DMSO concentration was less than 2%.
15 μL of a 3 mM NAD^+-containing substrate solution was added to all wells to begin the reaction. The 96-well plate was covered with a plate cover, and then incubated in a shaker at room temperature (25 to 30° C.) for 45 minutes.
A stop/developing solution was prepared. To prepare the final 5 mL solution, 200 μL of nicotinamide (NAM, Sigma-Aldrich) was added to a color developing powder weighing 30 mg, 4.8 mL of a diluted analysis buffer was added thereto, and the resulting mixture was stirred until the powder became a solution.
The plate cover was removed, and 50 μL of the stop/developing solution was added to each well.
The 96-well plate was covered with a plate cover, and incubated at room temperature (25 to 30° C.) for 30 minutes.
The plate cover was removed, and the plate was read using Cytation 5 at an excitation wavelength of 360 nm and an emission wavelength of 450 nm.
The mean fluorescence of each sample was measured.
The fluorescence of the background wells was subtracted from the fluorescence of the 100% initial activity wells and sample wells.
To determine the percent of each sample, each sample value was subtracted from the 100% initial activity value, and the resulting value was divided by the 100% initial activity value and then multiplied by 100 and added to 100, which was expressed as a percentage.

CSc1ccc(/C=C/C=C/C(=O)N2CCCCC2)cc1 [YU2014, (2E,4E)-5-(4-(methylthio)phenyl)-1-(piperidine-1-yl)penta-2,4-dien-1-one]
degree of lipid staining (ORO, absorbance at 540 nm, FIGS. 5-8) [1]: not greatly changed | increase of SIRT1 activity (FIG. 18) [2]: about 20%
